# Patent US10849878B2 (OBSHCHESTVO S OGRANICHENNOY OTVETSTVENNOSTYU “NORMOFARM”, priority 2015, dated 2020)
# Columns and labels:
# white Wistar rats = test: suspension test (24 h), antistress and anxiolytic activity; type: in vivo, rat
# Method: The anti-stress, anxiolytic and antidepressant effects of the claimed agent and compositions on its basis were determined as follows. […] The suspension test. Five animals from each group were used. Each animal was suspended for 24 hours. After that the sample of whole blood was taken from the sublingual vessels of that animal Then the animal was placed in a desiccator with diethyl ether. 60 minutes later a spinal decapitation of the animal was performed. The abdominal opening was performed and the number of ulcers on the inner surface of the stomach was counted. The obtained whole blood was placed in two test tubes. The whole blood was used to determine the number of eosinophils by the Duncker method. Serum was used to determine the biochemical composition of the blood. Adrenaline and norepinephrine were determined as biochemical indices. These characteristics are specific markers identifying the impact of stress factors of various etiologies. • 2. The transport stress simulation test. Five animals from each group were used. The animals were placed in cages fixed on a laboratory shutter. The duration of the test was 240 minutes. At the end of the test the animals were examined by the techniques described in paragraph 1. A sample of whole blood was taken to determine the number of eosinophils by the Duncker method. The blood serum was studied to measure the amount of enzymes: alanine aminotransferase (ALT), aspartate aminotransferase (AST), creatinine
# The tests were carried out on 2-month-old rats of the Wistar line. The groups were selected according to the principle of paired counterparts.
# During the course of the study the animals were selected from the formed groups of 10 animals each to participate in stress tests, 5 animals per test. The selection was made on the 7th, 14th, 21st day of the drug administration (experiments were performed on the same days right after selection). The animals were weighed weekly immediately before testing. The obtained data were processed by statistical methods of mathematical statistics. The drug was administered to the animals of the 2nd, 3rd and 4th groups in solution through a gastric tube. Water for injection produced by the “Bufus Novosibkhimpharm” was used as a solvent. The introduced volume was 1.5 ml. The solution was introduced at the same tine 2 hours after morning feeding. The first group was given water for injection by the same way. The volume of administration was 1.5 ml.
# During the test a change in the reaction of the animals was observed during prolonged administration of the preparation. Three sequences of the experiment were performed with a periodicity of 7 days. The drug was administered from the first day of the study daily without a break. Thus, accumulation of the drug in the animal body occurred. Five animals from each group were used in each sequence of the experiment (the animals were suspended for 24 hours). After this, blood samples were taken from the sublingual vessels. Further, the animal was euthanized with diethyl ether. Decapitation and dissection of the abdominal cavity were performed to calculate the number of ulcers on the inner surface of the stomach. The rats as objects for the study of psychotropic drugs are a successful model. They react quickly to various stress factors. It is convenient to evaluate the efficacy of drugs due to various factors beginning with physiological, behavioral, biochemical and other parameters. In the suspension test, it is possible to determine the overall psycho-emotional state of the animal in addition to physical endurance.
# The physiological, morphological and biochemical characteristics, such as the determination of ulcers in the stomach, eosinophils in whole blood, epinephrine and norepinephrine in blood serum were estimated as main and most informative indicators of the onset of a stress state in a living organism and of overall impact on the body. […]
# rats = test: Porsolt helplessness test; type: in vivo, rat
# [1] = 30 mg/kg solution by gastric tube, administration day 7
# [2] = 30 mg/kg solution by gastric tube, administration day 14
# [3] = 30 mg/kg solution by gastric tube, administration day 21
# [4] = 60 mg/kg in the form of pills with cocoa, administration day 7
# [5] = 60 mg/kg in the form of pills with cocoa, administration day 14
# [6] = 60 mg/kg in the form of pills with cocoa, administration day 21
# [7] = 60 mg/kg solution by gastric tube, administration day 7
# [8] = 60 mg/kg solution by gastric tube, administration day 14
# [9] = 60 mg/kg solution by gastric tube, administration day 21
# [10] = 120 mg/kg solution by gastric tube, administration day 7
# [11] = 120 mg/kg solution by gastric tube, administration day 14
# [12] = 120 mg/kg solution by gastric tube, administration day 21
# [13] = 7 days after the dosing, LiAsc, LiCa 5 mg/kg, phenazepam 0.25 mg
# [14] = 7 days after the drug withdrawal, 5 mg/kg
# [15] = 28 days after the dosing, LiAsc, LiCa 5 mg/kg, phenazepam 0.25 mg
# [16] = 28 days after the drug withdrawal, 5 mg/kg
smiles,measurement,setting,value
O=C1O[C@H]([C@@H](O)CO)C([O-])=C1O.[Li+] [lithium ascorbate],Adrenaline level in blood serum,white Wistar rats; [1],8.1 ± 0.52 µg/L
same,Eosinophil count in whole blood,white Wistar rats; [1],764 ± 6.5
same,Noradrenaline level in blood serum,white Wistar rats; [1],24.3 ± 2.2 µg/L
same,Number of ulcers in the stomach,white Wistar rats; [1],4.5 ± 0.9
same,Adrenaline level in blood serum,white Wistar rats; [2],6.9 ± 2.77 µg/L
same,Eosinophil count in whole blood,white Wistar rats; [2],897 ± 7.2
same,Noradrenaline level in blood serum,white Wistar rats; [2],18.2 ± 5.28 µg/L
same,Number of ulcers in the stomach,white Wistar rats; [2],2.4 ± 0.2
same,Adrenaline level in blood serum,white Wistar rats; [3],6.9 ± 0.97 µg/L
same,Eosinophil count in whole blood,white Wistar rats; [3],954 ± 9.7
same,Noradrenaline level in blood serum,white Wistar rats; [3],17.9 ± 0.95 µg/L
same,Number of ulcers in the stomach,white Wistar rats; [3],1.9 ± 0.4
same,Eosinophil count in whole blood,white Wistar rats; [4],653 ± 9.2
same,Noradrenaline level in blood serum,white Wistar rats; [4],54.8 ± 10.4 µg/L
same,Number of ulcers in the stomach,white Wistar rats; [4],8.7 ± 1.2
same,Adrenaline level in blood serum,white Wistar rats; [5],6.7 ± 0.96 µg/L
same,Eosinophil count in whole blood,white Wistar rats; [5],913 ± 0.9
same,Noradrenaline level in blood serum,white Wistar rats; [5],18.4 ± 0.49 µg/L
same,Number of ulcers in the stomach,white Wistar rats; [5],1.6 ± 0.9
same,Adrenaline level in blood serum,white Wistar rats; [6],7.9 ± 3.61 µg/L
same,Eosinophil count in whole blood,white Wistar rats; [6],954 ± 3.6
same,Noradrenaline level in blood serum,white Wistar rats; [6],17.8 ± 0.98 µg/L
same,Number of ulcers in the stomach,white Wistar rats; [6],1.5 ± 0.6
same,Adrenaline level in blood serum,white Wistar rats; [7],7.9 ± 0.21 µg/L
same,Eosinophil count in whole blood,white Wistar rats; [7],791 ± 1.2
same,Noradrenaline level in blood serum,white Wistar rats; [7],22.1 ± 1.98 µg/L
same,Number of ulcers in the stomach,white Wistar rats; [7],4.1 ± 0.8
same,Adrenaline level in blood serum,white Wistar rats; [8],7.1 ± 1.19 µg/L
same,Eosinophil count in whole blood,white Wistar rats; [8],866 ± 9.4
same,Noradrenaline level in blood serum,white Wistar rats; [8],20.3 ± 3.49 µg/L
same,Number of ulcers in the stomach,white Wistar rats; [8],2.6 ± 0.4
same,Adrenaline level in blood serum,white Wistar rats; [9],7.3 ± 2.14 µg/L
same,Eosinophil count in whole blood,white Wistar rats; [9],910 ± 4.1
same,Noradrenaline level in blood serum,white Wistar rats; [9],19.3 ± 6.13 µg/L
same,Number of ulcers in the stomach,white Wistar rats; [9],2.4 ± 0.5
same,Adrenaline level in blood serum,white Wistar rats; [10],7.6 ± 0.38 µg/L
same,Eosinophil count in whole blood,white Wistar rats; [10],768 ± 6.7
same,Noradrenaline level in blood serum,white Wistar rats; [10],20.2 ± 5.67 µg/L
same,Number of ulcers in the stomach,white Wistar rats; [10],4.0 ± 0.5
same,Adrenaline level in blood serum,white Wistar rats; [11],8.7 ± 3.82 µg/L
same,Eosinophil count in whole blood,white Wistar rats; [11],885 ± 3.8
same,Noradrenaline level in blood serum,white Wistar rats; [11],20.3 ± 4.83 µg/L
same,Number of ulcers in the stomach,white Wistar rats; [11],2.5 ± 1.1
same,Adrenaline level in blood serum,white Wistar rats; [12],9.6 ± 3.28 µg/L
same,Eosinophil count in whole blood,white Wistar rats; [12],911 ± 8.2
same,Noradrenaline level in blood serum,white Wistar rats; [12],18.4 ± 5.27 µg/L
same,Number of ulcers in the stomach,white Wistar rats; [12],2.1 ± 0.7
same,all measured characteristics versus the control group (group #1),"white Wistar rats; all the tests, oral aqueous solutions",2.5-3.5 times
same,"number of defecation acts, control animals versus treated animals",white Wistar rats; control more than treated,3-4 times
same,ulcer count versus the control group (group #1),white Wistar rats; oral aqueous solutions,more than 10 times
same,decrease in the level of adrenaline and norepinephrine,white Wistar rats; versus control,"3,5-4 times"
same,Adrenalin,rats; [13],7.4 ± 1.4 µg/L
same,Duration of activity,rats; [13],356.4 ± 26.1 s
same,Duration of immobility,rats; [13],243.6 ± 17.6 s
same,Eosinophils (Dunger method) in mm^3,rats; [13],783.2 ± 24.7 in mm^3
same,Noradrenalin,rats; [13],19.9 ± 0.9 µg/L
same,Number of gastric ulcers,rats; [13],1.5 ± 0.6
same,Adrenalin,rats; [14],8.4 ± 0.9 µg/L
same,Duration of activity,rats; [14],472.6 ± 29.3 s
same,Duration of immobility,rats; [14],127.3 ± 19.7 s
same,Eosinophils (Dunger method) in mm^3,rats; [14],923.5 ± 64.2 in mm^3
same,Noradrenalin,rats; [14],18.3 ± 3.2 µg/L
same,Number of gastric ulcers,rats; [14],1.6 ± 0.9
same,Adrenalin,rats; [15],6.1 ± 0.6 µg/L
same,Duration of activity,rats; [15],506.4 ± 31.4 s
same,Duration of immobility,rats; [15],93.0 ± 19.3 s
same,Eosinophils (Dunger method) in mm^3,rats; [15],987.3 ± 34.8 in mm^3
same,Noradrenalin,rats; [15],15.6 ± 0.79 µg/L
same,Number of gastric ulcers,rats; [15],0.8 ± 0.2
same,Adrenalin,rats; [16],20.3 ± 9.3 µg/L
same,Duration of activity,rats; [16],221.1 ± 19.8 s
same,Duration of immobility,rats; [16],377.9 ± 86.4 s
same,Eosinophils (Dunger method) in mm^3,rats; [16],409.7 ± 37.9 in mm^3
same,Noradrenalin,rats; [16],38.9 ± 10.9 µg/L
same,Number of gastric ulcers,rats; [16],5.9 ± 0.4
